# Results taken from patent US20040175447A1, “Feeds and fertilizers containing pentacyclic triterpenes” (The Nisshin OilliO, Ltd., priority 2001, published 2004).
# System: B-16 melanoma cells
# Assay: Evaluation of melanin production-inhibitory effect (cell-whitening degree of cultured B-16 melanoma cells); on Melanin production-inhibitory effect (cell-whitening degree): key: ++: The whitening degree is higher than that observed for the positive control; +: The whitening degree is almost identical to that observed for the positive control; ±: The whitening degree is not higher than that observed for the positive control, but higher than that observed for the control; −: The whitening degree is almost identical to that observed for the control
# Assay type: cell-based
# Settings: for melanogenesis-inhibitory function relative to that observed when 450 ppm of vitamin C-magnesium phosphate (standard) is added: from Table 1; for Melanin production-inhibitory effect (cell-whitening degree): positive control 450 ppm vitamin C-magnesium phosphate
# Description: In the present invention, the melanogenesis-inhibitory effect is evaluated and compared on the basis of the results of tests for examining the melanogenesis-inhibitory function in which B-16 melanoma cells are cultivated, as a primary evaluation. Moreover, a feed is, for instance, practically prepared and its effectiveness in the melanogenesis-inhibition is evaluated as a secondary evaluation. It has been confirmed that the pentacyclic triterpenes whose strong melanogenesis-inhibitory function is confirmed by the cell culture test as the primary evaluation also show an excellent effect in the secondary evaluation test. In addition, it has also been confirmed that there is a correlation between the results obtained in these two evaluation methods.
# If the culture system includes a melanogenesis-inhibitory substance during the proliferation thereof, the blackening of the cells is suppressed while the whitening thereof is relatively promoted. Accordingly, the melanogenesis-inhibitory function of the substance can be evaluated by comparing the degree of whitening observed for the substance with the degree of blackening observed for a control. The evaluated results of the melanogenesis-inhibitory effect obtained in this cell culture system clearly indicate that the pentacyclic triterpenes and/or physiologically acceptable salts thereof or derivatives thereof have quite strong melanogenesis-inhibitory effects. For instance, when comparing the effects thereof with that achieved by vitamin C-magnesium phosphate, the melanogenesis-inhibitory effect is about 100 to 200 times, for maslinic acid, about 100 to 200 times, for maslinic acid salts, about 10 to 100 times, for erythrodiol, about 30 to 120 times, for uvaol, about 30 to 120 times, for betulinic acid, about 10 to 100 times, for betulin, about 100 to 200 times, for ethyl maslinate, about 50 to 150 times, for acetylated maslinic acid, about 30 to 120 times, for triethylsilylated maslinic acid, about 50 to 150 times, for stearoyl derivative of ethyl maslinate, about 10 to 100 times, for acetylated erythrodiol, about 10 to 100 times, for acetylated uvaol, about 10 to 100 times, for ethyl betulinate, and about 5 to 50 times, for acetylated betulin, that observed for the vitamin C-magnesium phosphate.
# A culture medium was dispensed to wells of a 6-well plate (2 mL/well each), followed by inoculation of a desired amount of B-16 melanoma cells on each well, allowing the wells to stand at 37° C. and 5% CO2 to thus cultivate the cells. On the day subsequent thereto, a candidate sample (pentacyclic triterpenes) solution prepared was added to and mixed with the culture medium containing the cells and the cultivation was continued. The culture medium was replaced with fresh one on the 5th day from the initiation of the cultivation and the prepared sample solution was again added to the wells. On the next day, the culture medium was removed to recover the cells, followed by the washing of these cells with PBS (phosphate buffered physiological saline) and the subsequent evaluation of the cell-whitening degree. In this respect, the melanogenesis-inhibitory function was evaluated by comparing the cell-whitening degree thus obtained with that observed when using 450 ppm of vitamin C-magnesium phosphate as a known whitening agent (a positive control) and that obtained when any candidate sample was not used (control), according to the following evaluation criteria.
# The evaluation criteria for the cell-whitening degree are as follows:
# Regarding the results listed in Table 1, the whitening degree observed when adding 450 ppm of vitamin C-magnesium phosphate is selected as a standard.
SMILES,concentration required for showing the effect identical to that observed for 450 ppm of vitamin C-magnesium phosphate,melanogenesis-inhibitory function relative to that observed when 450 ppm of vitamin C-magnesium phosphate (standard) is added,Melanin production-inhibitory effect (cell-whitening degree) (2 ppm),Melanin production-inhibitory effect (cell-whitening degree) (6 ppm),Melanin production-inhibitory effect (cell-whitening degree) (10 ppm),Melanin production-inhibitory effect (cell-whitening degree) (25 ppm),Melanin production-inhibitory effect (cell-whitening degree) (50 ppm),Melanin production-inhibitory effect (cell-whitening degree) (4 ppm),Melanin production-inhibitory effect (cell-whitening degree) (8 ppm),Melanin production-inhibitory effect (cell-whitening degree) (15 ppm)
"CC1(C)CC[C@]2(C(=O)O)CC[C@]3(C)C(=CC[C@@H]4[C@@]5(C)C[C@@H](O)[C@H](O)C(C)(C)[C@@H]5CC[C@]43C)[C@@H]2C1 [Purified maslinic acid 1, maslinic acid]",4 ppm,about 110 times,,,,,,,,
C=C(C)[C@@H]1CC[C@]2(CO)CC[C@]3(C)[C@H](CC[C@@H]4[C@@]5(C)CC[C@H](O)C(C)(C)[C@@H]5CC[C@]43C)[C@@H]12 [Betulin],,about 20 times,−,±,±,+,+,,,
"CC(=O)OC[C@]12CC[C@@H](C)[C@H](C)[C@H]1C1=CC[C@@H]3[C@@]4(C)CC[C@H](OC(C)=O)C(C)(C)[C@@H]4CC[C@@]3(C)[C@]1(C)CC2 [Compound of Synthesis 7, 3,28-O-Di-Acetyl-Uvaol]",,about 20 times,−,−,±,+,+,,,
"C=C(C)[C@@H]1CC[C@]2(C(=O)OCC)CC[C@]3(C)[C@H](CC[C@@H]4[C@@]5(C)CC[C@H](O)C(C)(C)[C@@H]5CC[C@]43C)[C@@H]12 [Compound of Synthesis 8, Ethyl Betulinate]",,about 20 times,−,±,±,+,+,,,
C[C@H]1[C@H](C)CC[C@]2(CO)CC[C@]3(C)C(=CC[C@@H]4[C@@]5(C)CC[C@H](O)C(C)(C)[C@@H]5CC[C@]43C)[C@H]12 [Uvaol],,about 40 times,−,−,+,+,+,,,
"CCCCCCCCCCCCCCCCCC(=O)O[C@@H]1C[C@]2(C)[C@H]3CC=C4[C@@H]5CC(C)(C)CC[C@]5(C(=O)OCC)CC[C@@]4(C)[C@]3(C)CC[C@H]2C(C)(C)[C@H]1OC(=O)CCCCCCCCCCCCCCCCC [Compound of Synthesis 4, Ethyl 2,3-O-Di-Stearoyl-Maslinate]",,about 75 times,±,+,++,,,±,++,++
"CC(=O)OCC12CCC(C)(C)CC1C1=CCC3C4(C)CCC(OC(C)=O)C(C)(C)C4CCC3(C)C1(C)CC2 (stereo not shown) [Compound of Synthesis 5, 3,28-O-Di-Acetyl-Erythrodiol]",,about 20 times,−,±,±,+,+,,,
CC1(C)CC[C@]2(CO)CC[C@]3(C)C(=CC[C@@H]4[C@@]5(C)CC[C@H](O)C(C)(C)[C@@H]5CC[C@]43C)[C@@H]2C1 [Erythrodiol],,about 20 times,±,±,±,+,+,,,
C=C(C)[C@@H]1CC[C@]2(C(=O)O)CC[C@]3(C)[C@H](CC[C@@H]4[C@@]5(C)CC[C@H](O)C(C)(C)[C@@H]5CC[C@]43C)[C@@H]12 [Betulinic acid],,about 40 times,−,±,+,+,+,,,
"CCOC(=O)[C@]12CC[C@@H](C)[C@H](C)[C@H]1C1=CC[C@@H]3[C@@]4(C)CC[C@H](O)C(C)(C)[C@@H]4CC[C@@]3(C)[C@]1(C)CC2 [Compound of Synthesis 6, Ethyl Ursolate]",,about 110 times,±,++,++,,,+,++,
"CC(=O)O[C@@H]1C[C@]2(C)[C@H]3CC=C4[C@@H]5CC(C)(C)CC[C@]5(C(=O)O)CC[C@@]4(C)[C@]3(C)CC[C@H]2C(C)(C)[C@H]1OC(C)=O [Compound of Synthesis 2, 2,3-O-Di-Acetyl-Maslinic Acid]",,about 75 times,±,+,++,,,±,++,++
"C=C(C)[C@@H]1CC[C@]2(COC(C)=O)CC[C@]3(C)[C@H](CC[C@@H]4[C@@]5(C)CC[C@H](OC(C)=O)C(C)(C)[C@@H]5CC[C@]43C)[C@@H]12 [Compound of Synthesis 9, 3,28-O-Di-Acetyl-Betulin]",,about 10 times,−,−,±,±,+,,,
